Laboratory results: patent US20250205256A1 (GH RESEARCH IRELAND LIMITED, priority 2022, published 2025)

Tests used:
[1] = tested on: patient with postpartum depression (PPD); assay: Clinical trial of inhaled 5-MeO-DMT (IDR, 6 mg then 12 mg) in postpartum depression: BPRS; type: in vivo, human; conditions: PPD n=1
Source text: The patient completed all planned visit days.

[2] = tested on: patients with treatment-resistant major depressive disorder (TRD); assay: Phase 1/2 clinical trial of inhaled 5-MeO-DMT in TRD: MADRS; type: in vivo, human; conditions: for mean MADRS change from baseline at day seven / mean MADRS change from baseline at day seven, percent: n=4
Source text: Patients were assigned to different groups.
This trial was designed in two parts.

[3] = 12 mg n=4 sum, 2 h after dose vs baseline
[4] = 12 mg n=4 sum, 2 h after dose, baseline 16
[5] = 12 mg n=4 sum, Day 1, baseline 16
[6] = 12 mg n=4 sum, Day 1 vs baseline
[7] = 12 mg n=4 sum, Day 7, baseline 16
[8] = 12 mg n=4 sum, Day 7 vs baseline
[9] = IDR n=8 sum, 2 h after last dose vs baseline

## COc1ccc2[nH]cc(CCN(C)C)c2c1 [5-MeO-DMT]
[1]; Day 1 vs baseline
  BPRS Tension improvement: 5
[1]; Discharge vs baseline
  BPRS Tension improvement: 5
[2]; [3]
  MADRS Concentration Difficulties improvement: 9
  MADRS Inability to Feel improvement: 7
  MADRS Inner Tension improvement: 11
  MADRS Lassitude improvement: 6
  MADRS Pessimistic Thoughts improvement: 8
  MADRS Pessimistic Thoughts percentage improvement: 50.00%
  MADRS Suicidal Thoughts improvement: 5
[2]; 12 mg n=4 sum, 2 h after dose, baseline 8
  MADRS Suicidal Thoughts score: 3
[2]; 12 mg n=4 sum, 2 h after dose, baseline 13
  MADRS Inner Tension score: 2
[2]; [4]
  MADRS Concentration Difficulties score: 7
  MADRS Inability to Feel score: 9
  MADRS Lassitude score: 10
  MADRS Pessimistic Thoughts score: 8
[2]; 12 mg n=4 sum, Day 1, baseline 8
  MADRS Suicidal Thoughts score: 5
[2]; 12 mg n=4 sum, Day 1, baseline 12
  MADRS Reduced Sleep score: 10
[2]; 12 mg n=4 sum, Day 1, baseline 13
  MADRS Inner Tension score: 3
[2]; [5]
  MADRS Concentration Difficulties score: 2
  MADRS Inability to Feel score: 1
  MADRS Pessimistic Thoughts score: 7
[2]; [6]
  MADRS Concentration Difficulties improvement: 14
  MADRS Inability to Feel improvement: 15
  MADRS Inner Tension improvement: 10
  MADRS Lassitude improvement: 16
  MADRS Pessimistic Thoughts improvement: 9
  MADRS Reduced Sleep improvement: 2
  MADRS Suicidal Thoughts improvement: 3
[2]; 12 mg n=4 sum, Day 7, baseline 8
  MADRS Suicidal Thoughts score: 7
[2]; 12 mg n=4 sum, Day 7, baseline 12
  MADRS Reduced Sleep score: 6
[2]; 12 mg n=4 sum, Day 7, baseline 13
  MADRS Inner Tension score: 5
[2]; [7]
  MADRS Concentration Difficulties score: 3
  MADRS Inability to Feel score: 1
  MADRS Lassitude score: 3
  MADRS Pessimistic Thoughts score: 8
[2]; [8]
  MADRS Concentration Difficulties improvement: 13
  MADRS Inability to Feel improvement: 15
  MADRS Inner Tension improvement: 8
  MADRS Lassitude improvement: 13
  MADRS Pessimistic Thoughts improvement: 8
  MADRS Pessimistic Thoughts percentage improvement: 50.00%
  MADRS Reduced Sleep improvement: 6
  MADRS Reduced Sleep percentage improvement: 50.00%
  MADRS Suicidal Thoughts improvement: 1
[2]; [9]
  MADRS Concentration Difficulties improvement: 19
  MADRS Inability to Feel improvement: 24
  MADRS Inner Tension improvement: 15
  MADRS Lassitude improvement: 17
  MADRS Pessimistic Thoughts improvement: 21
  MADRS Pessimistic Thoughts percentage improvement: 75.00%
  MADRS Suicidal Thoughts improvement: 8
[2]; IDR n=8 sum, 2 h after last dose, baseline 11
  MADRS Suicidal Thoughts score: 3
[2]; IDR n=8 sum, 2 h after last dose, baseline 26
  MADRS Inner Tension score: 11
[2]; IDR n=8 sum, 2 h after last dose, baseline 27
  MADRS Lassitude score: 10
[2]; IDR n=8 sum, 2 h after last dose, baseline 28
  MADRS Pessimistic Thoughts score: 7
[2]; IDR n=8 sum, 2 h after last dose, baseline 30
  MADRS Concentration Difficulties score: 11
[2]; IDR n=8 sum, 2 h after last dose, baseline 36
  MADRS Inability to Feel score: 12
[2]; IDR n=8 sum, Day 1, baseline 11
  MADRS Suicidal Thoughts score: 1
[2]; IDR n=8 sum, Day 1, baseline 25
  MADRS Reduced Sleep score: 12
[2]; IDR n=8 sum, Day 1, baseline 26
  MADRS Inner Tension score: 6
[2]; IDR n=8 sum, Day 1, baseline 27
  MADRS Lassitude score: 5
[2]; IDR n=8 sum, Day 1, baseline 28
  MADRS Pessimistic Thoughts score: 4
[2]; IDR n=8 sum, Day 1, baseline 30
  MADRS Concentration Difficulties score: 1
[2]; IDR n=8 sum, Day 1, baseline 36
  MADRS Inability to Feel score: 2
[2]; IDR n=8 sum, Day 1 vs baseline
  MADRS Concentration Difficulties improvement: 29
  MADRS Inability to Feel improvement: 34
  MADRS Inner Tension improvement: 20
  MADRS Lassitude improvement: 22
  MADRS Pessimistic Thoughts improvement: 24
  MADRS Reduced Sleep improvement: 13
  MADRS Reduced Sleep percentage improvement: 52.00%
  MADRS Suicidal Thoughts improvement: 10
[2]; IDR n=8 sum, Day 7, baseline 11
  MADRS Suicidal Thoughts score: 3
[2]; IDR n=8 sum, Day 7, baseline 25
  MADRS Reduced Sleep score: 9
[2]; IDR n=8 sum, Day 7, baseline 26
  MADRS Inner Tension score: 12
[2]; IDR n=8 sum, Day 7, baseline 27
  MADRS Lassitude score: 3
[2]; IDR n=8 sum, Day 7, baseline 28
  MADRS Pessimistic Thoughts score: 3
[2]; IDR n=8 sum, Day 7, baseline 30
  MADRS Concentration Difficulties score: 9
[2]; IDR n=8 sum, Day 7, baseline 36
  MADRS Inability to Feel score: 6
[2]; IDR n=8 sum, Day 7 vs baseline
  MADRS Concentration Difficulties improvement: 21
  MADRS Inability to Feel improvement: 30
  MADRS Inner Tension improvement: 14
  MADRS Lassitude improvement: 24
  MADRS Pessimistic Thoughts improvement: 25
  MADRS Reduced Sleep improvement: 16
  MADRS Reduced Sleep percentage improvement: 64.00%
  MADRS Suicidal Thoughts improvement: 8
[2]; Part A, 12 mg
  mean MADRS change from baseline at day seven: −21.0
  mean MADRS change from baseline at day seven, percent: −65%
[2]; Part A, 12 mg, two of four patients
  patients with MADRS remission (total score ≤10) on day seven: 50%
[2]; Part A, 18 mg
  mean MADRS change from baseline at day seven: −12.8
  mean MADRS change from baseline at day seven, percent: −41%
[2]; Part A, 18 mg, one further patient of four
  further patients with MADRS clinical response on day seven: 25%
[2]; Part A, 18 mg, one of four patients
  patients with MADRS remission (total score ≤10) on day seven: 25%
[2]; Part B, IDR, seven of eight patients, p<0.0001
  patients with MADRS remission (total score ≤10) on day seven: 87.5%
